Experimental data: patent publication US20090297638A1

Tests used:
TNF-RE tkLuc = TNF-RE tkLuc reporter, effect of antiestrogens (ER subtype not given); assay type: cell-based, human; conditions: for effect on the repression induced by E2: TNF-RE tkLuc, with E2; for activation of TNF-RE tkLuc: antiestrogens, in contrast to E2
Text: Plasmid Construction. […] ERβmutants were created with QuikChange site-directed mutagenesis kits (Stratagene), by using oligonucleotides containing the mutation. The mutants were sequenced with Sequenase kits (Amersham Pharmacia) to verify the presence of the mutation.

human ERβ = biological target: T1, human ERβ (Homo sapiens, UniProt Q92731); test: ERE-tk-Luc luciferase assay in U2OS osteosarcoma cells, ERβ; assay type: cell-based; conditions: co-administration with the extract (Herb 16)
T1 construct: expressed in transfected cells; host or cells: U2OS (human osteosarcoma)
Description: Preparation of Anemarrhena Asphodeloides Bge. from the Liliaceae Family: Samples of Anemarrhena asphodeloides Bge. from the Liliaceae Family were ground to fine powder using a commercial electric herb grinder; 5 grams were weighed and extracted in a) 50 ml of 100% EtOH or b) 50 ml of distilled H2O was simmered at 75° Celsius for 45 minutes. The extracts (a and b) were than decanted and only the soluble material was used.

[1] = five years of therapy; cited from earlier work
[2] = women at high risk for breast cancer; cited from earlier work

T1 sequence (Q92731 whole entry): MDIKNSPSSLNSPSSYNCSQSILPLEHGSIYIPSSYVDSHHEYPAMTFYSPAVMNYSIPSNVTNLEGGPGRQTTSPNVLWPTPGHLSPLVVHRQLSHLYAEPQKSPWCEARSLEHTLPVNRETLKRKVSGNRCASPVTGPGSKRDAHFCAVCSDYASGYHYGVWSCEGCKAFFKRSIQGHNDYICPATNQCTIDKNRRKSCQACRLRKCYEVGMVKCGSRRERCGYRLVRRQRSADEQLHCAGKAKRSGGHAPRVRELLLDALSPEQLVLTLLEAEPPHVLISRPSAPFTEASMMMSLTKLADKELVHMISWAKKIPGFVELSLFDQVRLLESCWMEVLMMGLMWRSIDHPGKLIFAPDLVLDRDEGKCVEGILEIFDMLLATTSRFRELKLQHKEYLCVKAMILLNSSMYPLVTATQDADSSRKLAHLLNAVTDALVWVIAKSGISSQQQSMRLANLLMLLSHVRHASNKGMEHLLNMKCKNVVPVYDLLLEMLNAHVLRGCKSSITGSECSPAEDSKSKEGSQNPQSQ

Row | effect on extract-stimulated ERE-tk-Luc expression (human ERβ; FIG. 5) | effect on extract-stimulated ERE-tk-Luc expression (human ERβ; FIG. 5, listed as ICI) | effect on extract-stimulated ERE-tk-Luc expression (human ERβ; FIG. 5, listed as Raloxifene) | Compound | effect on the repression induced by E2 (TNF-RE tkLuc) | activation of TNF-RE tkLuc (TNF-RE tkLuc) | reduction of mortality from breast cancer [1] | reduction of the risk of recurrences [1] | reduction of the risk of primary invasive breast cancer [2]
1 | counteracted | attenuated |  | C[C@]12CC[C@@H]3c4ccc(O)cc4C[C@@H](CCCCCCCCC[S+]([O-])CCCC(F)(F)C(F)(F)F)[C@H]3[C@@H]1CC[C@@H]2O (stereo partly shown) [ICI 182780] | abolished the repression induced by E2 | 2 fold |  |  | 
2 | counteracted |  | attenuated | O=C(c1ccc(OCCN2CCCCC2)cc1)c1c(-c2ccc(O)cc2)sc2cc(O)ccc12 [raloxifene] | abolished the repression induced by E2 | 2 fold |  |  | 
3 |  |  |  | CC/C(=C(\c1ccccc1)c1ccc(OCCN(C)C)cc1)c1ccccc1 [tamoxifen] | abolished the repression induced by E2 | 2 fold | 22% | 42% | 49%
